Assay results as given in publication PMC10220648 (Viruses, 2023).
Where two headings read alike, the source gives them in different places.

Tests used:
HIV-1AD8 = assay: microbe, parasite or virus in culture; assay type: cell-based; settings: TZM-bl cells, tier-2 virus, average ± SD of at least three independent experiments, read-out: Viral neutralization IC50, HIV-1AD8
[1] = tested on: HIV-1JRFL-infected primary CD4+ T cells; assay: Anti-CoRBS 17b mAb binding to infected cells (flow cytometry); assay type: cell-based, human; settings: 50 µM CD4mc; p24+ population; MFI
[2] = tested on: HIV-1AD8-infected primary CD4+ T cells; assay: FACS-based ADCC assay with HIV+ plasma; assay type: cell-based, human; settings: 50µM compound; plasma 1/1000; effector/target 10:1
VSV-G pseudovirus = assay: microbe, parasite or virus in culture; assay type: cell-based; settings: TZM-bl, read-out: Viral neutralization IC50, VSV-G Pseudovirus
LMHT gp120CRF01_AE coree = LMHT gp120CRF01_AE coree (Human immunodeficiency virus type 1, UniProt Q0ED31, DEL123-198/DEL305-311/DEL316-323/H375T/H60Y/I469M/K470R/N199G/N304G/N468D/P313S/Q104H/Q315S/T200G/V107I); assay: biochemical; assay type: binding, HIV-1
HIV-1CH58TF = assay: microbe, parasite or virus in culture; assay type: cell-based; settings: TZM-bl cells, average ± SD of at least three independent experiments, read-out: Viral neutralization IC50, HIV-1CH58TF
[3] = tested on: HIV-1AD8-infected primary CD4+ T cells; assay: HIV+ plasma cell-surface staining of infected cells; assay type: cell-based, human; settings: 50µM compound; plasma 1:1000
[4] = tested on: HIV-1CH58TF-infected primary CD4+ T cells; assay: as above; assay type: cell-based, human; settings: 50µM compound; plasma 1:1000
[5] = tested on: HIV-1CH58TF-infected primary CD4+ T cells; assay: FACS-based ADCC assay with HIV+ plasma; assay type: cell-based, human; settings: 50µM compound; plasma 1/1000; effector/target 10:1
[6] = tested on: HIV-1CH58TF-infected primary CD4+ T cells; assay: Anti-CoRBS 17b mAb binding to infected cells (flow cytometry); assay type: cell-based, human; settings: 50 µM CD4mc; p24+ population; MFI
HIV-1JRFL = assay type: cell-based; settings: TZM-bl cells; tier-2 virus; average ± SD of at least three independent experiments
[7] = tested on: HIV-1JRFL-infected primary CD4+ T cells; assay: FACS-based ADCC assay with HIV+ plasma; assay type: cell-based, human; settings: 50µM compound; plasma 1/1000; effector/target 10:1
[8] = tested on: HIV-1JRFL-infected primary CD4+ T cells; assay: HIV+ plasma cell-surface staining of infected cells; assay type: cell-based, human; settings: 50µM compound; plasma 1:1000
[9] = Human immunodeficiency virus 1, TZM-bl

## NCC(=O)N1CCN(C(=O)N2C[C@H](CO)C[C@H](C(=O)Nc3ccc(Cl)c(F)c3)C2)CC1 (racemic) [DL-I-101]
HIV-1AD8; [9]
  IC50: 10.2 ± 3.1 µM
[1]
  17b binding (exposure of the CoRBS), HIV-1JRFL-infected cells: successfully exposed the CoRBS
[2]
  Susceptibility to ADCC mediated by HIV+ plasma, HIV-1AD8: translated into ADCC
VSV-G pseudovirus
  IC50: > 100 µM
LMHT gp120CRF01_AE coree
  IC50: 0.308 µM
HIV-1CH58TF; [9]
  IC50: 0.16 ± 0.03 µM
[3]
  HIV+ plasma binding (recognition of infected cells), HIV-1AD8: did

## O=C(O)CN1CCN(C(=O)N2C[C@H](CO)C[C@H](C(=O)Nc3ccc(Cl)c(F)c3)C2)CC1 (racemic) [DL-I-102]
HIV-1AD8; [9]
  IC50: 87 ± 39 µM
[1]
  17b binding (exposure of the CoRBS), HIV-1JRFL-infected cells: successfully exposed the CoRBS
VSV-G pseudovirus
  IC50: > 100 µM
LMHT gp120CRF01_AE coree
  IC50: 0.561 µM
HIV-1CH58TF; [9]
  IC50: 0.66 ± 0.25 µM

## CNCc1ccc2c(c1)C[C@H](CNC(=N)N)[C@H]2NC(=O)C(=O)Nc1ccc(Cl)c(F)c1 [BNM-III-170, reference compound]
[4]
  HIV+ plasma binding (recognition of infected cells), HIV-1CH58TF: enhanced the recognition
HIV-1AD8; [9]
  IC50: 3.75 µM
HIV-1AD8
  IC50: 3.75 ± 1.3 µM
[5]
  Susceptibility to ADCC mediated by HIV+ plasma, HIV-1CH58TF: enhanced
VSV-G pseudovirus
  IC50: > 100 µM
HIV-1CH58TF; [9]
  IC50: 0.0336 µM
HIV-1CH58TF
  IC50: 0.033 ± 0.01 µM

## NCCNC(=O)N1CCC[C@H](C(=O)Nc2ccc(Cl)c(F)c2)C1 [MCG-IV-210, reference compound]
[4]
  HIV+ plasma binding (recognition of infected cells), HIV-1CH58TF: enhanced the recognition
HIV-1AD8; [9]
  IC50: > 100 µM
[1]
  17b binding (exposure of the CoRBS), HIV-1JRFL-infected cells: but not the tier-2 HIV-1JRFL
[5]
  Susceptibility to ADCC mediated by HIV+ plasma, HIV-1CH58TF: enhanced
VSV-G pseudovirus
  IC50: > 100 µM
[6]
  17b binding (exposure of the CoRBS), HIV-1CH58TF-infected cells: exposed the CoRBS
LMHT gp120CRF01_AE coree
  IC50: 0.969 µM
HIV-1CH58TF; [9]
  IC50: 3.46 ± 1.06 µM
HIV-1JRFL
  Viral neutralization IC50, HIV-1JRFL: unable to inhibit viral infection
[3]
  HIV+ plasma binding (recognition of infected cells), HIV-1AD8: did not promote HIV+ plasma binding

## CN1CCN(C(=O)N2CCC[C@H](C(=O)Nc3ccc(Cl)c(F)c3)C2)CC1 [TFH-I-070-A6]
HIV-1AD8; [9]
  IC50: 9.59 ± 3.4 µM
[1]
  17b binding (exposure of the CoRBS), HIV-1JRFL-infected cells: successfully exposed the CoRBS
VSV-G pseudovirus
  IC50: > 100 µM
HIV-1CH58TF; [9]
  IC50: 0.45 ± 0.09 µM
[3]
  HIV+ plasma binding (recognition of infected cells), HIV-1AD8: did

## CC1CN(C(=O)N2CCCC(C(=O)Nc3ccc(Cl)c(F)c3)C2)CC(C)N1C (stereo not shown) [TFH-I-116-D1]
HIV-1AD8; [9]
  IC50: 4.8 µM
[1]
  17b binding (exposure of the CoRBS), HIV-1JRFL-infected cells: successfully exposed the CoRBS
[2]
  Susceptibility to ADCC mediated by HIV+ plasma, HIV-1AD8: translated into ADCC
[7]
  Susceptibility to ADCC mediated by HIV+ plasma, HIV-1JRFL: not translated into enhanced ADCC
VSV-G pseudovirus
  IC50: > 100 µM
[8]
  HIV+ plasma binding (recognition of infected cells), HIV-1JRFL: recognized the infected cells
HIV-1CH58TF; [9]
  IC50: 0.0655 µM
[3]
  HIV+ plasma binding (recognition of infected cells), HIV-1AD8: did

## CN1CCN(C(=O)N2C[C@H](CN)C[C@H](C(=O)Nc3ccc(Cl)c(F)c3)C2)CC1 [ZXC-I-090]
HIV-1AD8; [9]
  IC50: > 100 µM
VSV-G pseudovirus
  IC50: > 100 µM
HIV-1CH58TF; [9]
  IC50: 2.63 ± 0.5 µM

## C[C@@H]1CN(C(=O)N2C[C@H](CN)C[C@H](C(=O)Nc3ccc(Cl)c(F)c3)C2)C[C@H](C)N1C [ZXC-I-092]
HIV-1AD8; [9]
  IC50: 34 ± 13.8 µM
[1]
  17b binding (exposure of the CoRBS), HIV-1JRFL-infected cells: successfully exposed the CoRBS
VSV-G pseudovirus
  IC50: > 100 µM
HIV-1CH58TF; [9]
  IC50: 0.75 ± 0.12 µM
